In PubChem BioAssay (NCI):
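Interpolation was linear, between the two tested concentrations surrounding the appropriate level; five concentrations were tested over 48 hours in 96-well plates. At the GI50, growth is halved. TGI marks complete inhibition of growth.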

What was measured:
Assay in all cases: NCI tumour cell line growth inhibition, 48 h
[1] = test system: 786-0 renal
[2] = test system: NCI-H522 lung
[3] = test system: HOP-62 NSCLC
[4] = test system: SW-620 colon
[5] = test system: MDA-MB-435
[6] = test system: SNB-75 CNS
[7] = test system: SK-OV-3 ovarian
[8] = test system: SR leukemia
[9] = test system: SK-MEL-2 melanoma
[10] = test system: CAKI-1 renal
[11] = test system: HCT-15 colon
[12] = test system: HOP-92 NSCLC
[13] = test system: SF-295 CNS
[14] = test system: BT-549 breast
[15] = test system: LOX IMVI melanoma
[16] = test system: OVCAR-4 ovarian
[17] = test system: OVCAR-3 ovarian
[18] = test system: HT29 colon
[19] = test system: SK-MEL-5 melanoma
[20] = test system: HCT-116 colon
[21] = test system: MDA-MB-231 breast
[22] = test system: HL-60(TB) leukemia
[23] = test system: MOLT-4 leukemia
[24] = test system: KM12 colon
[25] = test system: NCI-H226 lung
[26] = test system: K-562 leukemia
[27] = test system: SF-268 CNS
[28] = test system: UACC-257 melanoma

Compound: COc1cc2c(cc1OCCCCCn1c(-c3ccc(OCc4ccccc4)cc3)nc3cc(N4CCOCC4)ccc31)N=C[C@@H]1CCCN1C2=O
- GI50 [1]: 3.24 µM
- TGI [1]: > 69.3 µM
- GI50 [2]: 2.15 µM
- TGI [2]: 8.35 µM
- GI50 [3]: 3.58 µM
- TGI [3]: 40 µM
- GI50 [4]: 2.12 µM
- TGI [4]: 8.29 µM
- GI50 [5]: 1.87 µM
- TGI [5]: 4.38 µM
- GI50 [6]: 1.99 µM
- TGI [6]: 6.63 µM
- GI50 [7]: 4.16 µM
- TGI [7]: > 100 µM
- GI50 [8]: 1.05 µM
- GI50 [9]: 0.729 µM
- TGI [9]: 3.02 µM
- GI50 [10]: 1.43 µM
- TGI [10]: 9 µM
- GI50 [11]: 2.81 µM
- TGI [11]: > 31.3 µM
- GI50 [12]: 2.11 µM
- TGI [12]: 26.2 µM
- GI50 [13]: 4.84 µM
- TGI [13]: > 100 µM
- GI50 [14]: 1.52 µM
- TGI [14]: 5.68 µM
- GI50 [15]: 2.02 µM
- TGI [15]: 7.85 µM
- GI50 [16]: 3.4 µM
- TGI [16]: 59.4 µM
- GI50 [17]: 2.06 µM
- TGI [17]: 5.36 µM
- GI50 [18]: 3.26 µM
- TGI [18]: > 100 µM
- GI50 [19]: 1.66 µM
- TGI [19]: 3.13 µM
- GI50 [20]: 2.39 µM
- TGI [20]: > 100 µM
- GI50 [21]: 2.8 µM
- TGI [21]: > 47.2 µM
- GI50 [22]: 2.31 µM
- TGI [22]: > 19.9 µM
- GI50 [23]: 2.93 µM
- TGI [23]: > 26.6 µM
- GI50 [24]: 1.93 µM
- TGI [24]: 4.73 µM
- GI50 [25]: 1.88 µM
- TGI [25]: 4.56 µM
- TGI [26]: > 100 µM
- GI50 [27]: 2.91 µM
- TGI [27]: 10.4 µM
- GI50 [28]: 3.04 µM
- TGI [28]: 7.78 µM
